Tested on: acute vomiting induced by a central emetic agent loperamide in dogs
Test: Acute vomiting induced by loperamide in dogs
Format: in vivo, beagle dogs
Details: loperamide 1 mg/kg subcutaneous
Procedure: 3 male or female beagle dogs (7.7 to 12.7 kg) per one group were used. Loperamide was subcutaneously given at 1 mg/ml/kg. 2.5 hours prior to loperamide administration, a small amount of a feed was given to the animals. 30 minutes thereafter, predetermined doses of the compound No. 3 were orally given. Similarly, 0.5 % methyl cellulose solution was orally given to a control animal group under no fasting. Predetermined doses of naloxone and ondansetron were given intravenously and orally, respectively to the animals under fasting, 30 minutes prior to loperamide administration. The frequency of vomiting was counted, up to 3 hours after loperamide administration. The compound No. 3 was dissolved in 0.5 % methyl cellulose solution, for oral dosing at a ratio of 0.25 to 1 ml per 1 kg body weight. Additionally, naloxone was intravenously given in a solution at a concentration of 0.05 % w/v. An injection of ondansetron at a concentration of 0.2 % w/v was orally given. Still additionally, 0.5 % methyl cellulose solution was orally given at a ratio of 1 ml per 1 kg body weight. The data relating to the frequency of vomiting, the latency and the time period from the occurrence of vomiting to the termination thereof were statistically analyzed by the Dunnett test, with reference to the difference from the control group.
The vomiting suppression ratio was calculated by the following formula. [Frequency of retching or vomiting in control] - [Frequency of retching or vomiting in animals dosed with compound No. 3] / [frequency of retching or vomiting in control] x 100 (%) [formula]

## C=CCN1CC[C@]23c4c5ccc(O)c4O[C@H]2C(=O)CC[C@@]3(O)[C@H]1C5 [Naloxone, naloxone, reference compound]
0.5 mg/kg i.v.
  Vomiting suppression ratio: 93 % b
0.5 mg/kg i.v., 3 hours
  B: Frequency of vomiting (mean ± SD): 0.7 ± 0.7 b
  C: Time period until first vomiting (minute; mean ± SD): 2.61± 0.39b minute
  D: Duration of vomiting (minute; mean ± SD): 0.01 ± 0.01 b minute
  Number of dogs with vomiting/number of tested dogs: 1/3
0.5 mg/kg intravenous
  Effect on vomiting (in words): almost completely suppressed
